Drawing on ChEMBL document CHEMBL4665915, “Evaluation of a Series of Lipidated Tucaresol Adjuvants in a Hepatitis C Virus Vaccine Model” (2020), this text covers Activity for four molecules.

The species entered for experiment [1] is Mus musculus. Kind of experiment: Immuno-adjuvant activity in E2deltaTM3-immunized BALB/cj mouse assessed as neutralization of HCV H77 genotype 1a pseudotyped virus particle with pooled immune sera at 1 ug/ml. Format: functional. The settings on record: dose 1 µg/ml.
Experiment [2] deals with Mus musculus. Kind of experiment: Immuno-adjuvant activity in E2deltaTM3-immunized BALB/cj mouse assessed as potentiation of antibody response to E1E2 by measuring increase in serum anti-E1E2 IgG level administered subcutaneously as prime injection at 200 ug and 800 ug compound split over the remaining four days to give final dose of 1 mg followed by booster injection at four week intervals on day 28, 56 and 84 and measured at […] post-booster injection on days 34, 62 and 90 by ELISA. Format: functional, organism-based. (ELISA stands for enzyme-linked immunosorbent assay.)

Activity calls are given as the source filed them. No cut-off for these calls is given here.

For `CCCCCCCCCCCCCCCCOc1cccc(O)c1C=O`, in the experiment filed under Mus musculus [1], the Activity is listed as 59%. Moreover, the outcome with Mus musculus [2] was Active.

For the molecule `CCCCCCCCCCCCCCCCOc1ccc(O)c(O)c1C=O`, in the experiment filed under Mus musculus [1], the Activity was found to be 71%. Also, the outcome with Mus musculus [2] was Active.

For the molecule `O=Cc1c(O)cccc1OCc1ccc(C(=O)O)cc1` [TUCARESOL], the Activity in the experiment filed under Mus musculus [1] is reported as 61%.

As for `CCCCCCCCCCCCCCCCOc1cc(O)ccc1C=O`, in the experiment filed under Mus musculus [1], the Activity worked out at 78%. Besides, the result in the experiment with Mus musculus [2] was Active.
